In patent publication US6399629B1, “Efflux pump inhibitors” (priority 1998, dated 2002):

Tested on: Pseudomonas aeruginosa PAM1001
Test: checkerboard assay (broth microdilution): levofloxacin MIC in presence of efflux pump inhibitor
Format: cell-based
Description: For compounds labeled with the prefix ‘M’, potentiation effect is observed by the reduction of the minimum inhibitory concentration of levofloxacin in the presence of the experimental efflux pump inhibitor. The activity of efflux pump inhibitors (EPI) in combination with fluoroquinolones, such as levofloxacin, is assessed by the checkerboard assay (Antimicrobial Combinations. In Antibiotics in Laboratory Medicine, Ed. Victor Lorian, M.D., Fourth edition, 1996, pp 333-338) using broth microdilution method performed as recommended by the National Committee for Clinical Laboratory Standards (1997). Methods for Dilution of Antimicrobial Susceptibility Tests for Bacteria That Grow Aerobically—Fourth Edition; Approved Standard. NCCLS Document M7-A4, Vol 17 No.2). The test organism used is Pseudomonas aeruginosa PAM1001. […] The compounds tabulated below are representative of the described invention.
In these assays, multiple dilutions of two drugs, namely the EPI and levofloxacin, are being tested, alone and in combination, at concentrations equal to, above and below their respective minimal inhibitory concentrations (MICs). In the case of EPI, most of these compounds are devoid of intrinsic antimicrobial activity and are tested up to the maximum concentration of 40 μg/mL. The MIC of levofloxacin against P. aeruginosa PAM1001 is 4 μg/mL.
The EPI tested are readily soluble in water and stock solutions are prepared at a final concentration of 2 mg/mL. Stock solutions are further diluted, according to the needs of a particular assay, in Mueller Hinton Broth (MHB). Stock solution can be stored at −80° C. Quinolones are solubilized according to the instructions of the manufacturers, at a concentration of 1 mg/mL. They are then further diluted in MHB. Stock solution can be stored at −80° C.
The checkerboard assay is performed in microtiter plates. Levofloxacin is diluted in the x axis, each column containing a single concentration of levofloxacin. The EPI is diluted in the y axis, each row containing an equal concentration of EPI. The result of these manipulations is that each well of the microtiter plate contains a unique combination of concentrations of the two agents. Each EPI are tested independently.
The assay is performed in MHB with a final bacterial inoculum of 5×10^5 CFU/mL (from an early-log phase culture). Microtiter plates are incubated during 20 h at 35° C. and are read using a microtiter plate reader (Molecular Devices) at 650 nm as well as visual observation using a microtiterplate reading mirror.

Compound	Levofloxacin MIC Against P. aerugiuosa PAM1001 in Presence of Efflux Pump Inhibitor (EPI), Minimum Inhibitory Concentration (EPI Conc. 0 μg/mL) [µg/mL]	Levofloxacin MIC Against P. aerugiuosa PAM1001 in Presence of Efflux Pump Inhibitor (EPI), Minimum Inhibitory Concentration (EPI Conc. 0.625 μg/mL) [µg/mL]	Levofloxacin MIC Against P. aerugiuosa PAM1001 in Presence of Efflux Pump Inhibitor (EPI), Minimum Inhibitory Concentration (EPI Conc. 1.25 μg/mL) [µg/mL]	Levofloxacin MIC Against P. aerugiuosa PAM1001 in Presence of Efflux Pump Inhibitor (EPI), Minimum Inhibitory Concentration (EPI Conc. 2.5 μg/mL) [µg/mL]	Levofloxacin MIC Against P. aerugiuosa PAM1001 in Presence of Efflux Pump Inhibitor (EPI), Minimum Inhibitory Concentration (EPI Conc. 5 μg/ mL) [µg/mL]	Levofloxacin MIC Against P. aerugiuosa PAM1001 in Presence of Efflux Pump Inhibitor (EPI), Minimum Inhibitory Concentration (EPI Conc. 10 μg/mL) [µg/mL]	Levofloxacin MIC Against P. aerugiuosa PAM1001 in Presence of Efflux Pump Inhibitor (EPI), Minimum Inhibitory Concentration (EPI Conc. 20 μg/mL) [µg/mL]	Levofloxacin MIC Against P. aerugiuosa PAM1001 in Presence of Efflux Pump Inhibitor (EPI), Minimum Inhibitory Concentration (EPI Conc. 40 μg/mL) [µg/mL]
NCC(=O)N[C@@H]1CN[C@@H](C(=O)N[C@H](CCc2ccccc2)C(=O)Nc2cnc3ccccc3c2)C1 [Compound M1, (2R,4S)-4-(2-Amionoacetamido)-N-[(1R-)-3-phenyl-1-(3-quinolylcarbamoyl)propyl]-2-pyrrolidinecarboxamide]	4	4	4	4	2	0.06	0.015	0.015
NCC(=O)N[C@H]1CN[C@H](C(=O)NCc2nc3cc(C(O)c4ccccc4)ccc3[nH]2)C1 (stereo partly drawn) [Compound M82, (2S,4R)-4-(2-Aminoacetamido)-N-[(5-(1-hydroxy-1-phenyl)methyl-2-benzimidazolyl)methyl]-2-pyrrolidinecarboxaniide]	4	4	4	2	1	0.25	0.125	0.06
NCC(=O)N[C@H]1CN[C@H](C(=O)N[C@@H](CCc2ccccc2)c2nc3ccccc3[nH]2)C1 [Compound M78]	4	4	4	4	4	2	1	0.125
NC[C@@H]1CN[C@@H](C(=O)NCc2nc3ccc(-c4ccccc4)cc3[nH]2)C1 [Compound M89, (2R,4R)-4-(Aminomethyl)-N-[(5-phenyl-2-benzimidaxolyl)methyl]-2-pyrrolidinecarboxamide]	4	4	4	4	2	2	0.03	0.03
